Some test systems named below: A549 NSCLC; MCF7 breast; SF-539 CNS; HL-60(TB) leukemia; OVCAR-8 ovarian; BT-549 breast; MDA-MB-231 breast; MOLT-4 leukemia; PC-3 prostate; OVCAR-4 ovarian.
Common to all, as to experiment: DTP human tumour cell line panel, 48 h

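1) Cells in 96-well plates. 2) Compound, 48 h, 5 concentrations. 3) Linear interpolation between surrounding doses. 4) Unreached endpoint = highest concentration. TGI denotes the concentration required for complete inhibition of growth.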

On to `Cc1ccc(Oc2cc(C)ccc2P(=O)(O)O)cc1`, for which the TGI in the assay on A549 NSCLC, in the assay with MCF7 breast, in the assay with SF-539 CNS, with HL-60(TB) leukemia, in the assay with OVCAR-8 ovarian and with BT-549 breast was greater than 100 µM in each case. In addition, the total growth inhibition concentration (TGI) with MDA-MB-231 breast, in the assay on MOLT-4 leukemia and in the assay on PC-3 prostate was greater than 100 µM in each case.

As to `Cc1cc2nnn(C3CCCO3)c2cc1C` (configuration not stated), the TGI with A549 NSCLC, in the assay on MCF7 breast, in the assay with SF-539 CNS, in the assay with HL-60(TB) leukemia, in the assay on OVCAR-8 ovarian and with BT-549 breast was greater than 100 µM each time. In addition, the total growth inhibition concentration (TGI) in the assay with MDA-MB-231 breast, in the assay with MOLT-4 leukemia and with PC-3 prostate was greater than 100 µM each time.

As to `CNc1ccc([N+](=O)[O-])cc1C(=O)N1CCC[C@H]1CO`, the TGI in the assay with A549 NSCLC, in the assay on MCF7 breast, with OVCAR-4 ovarian, in the assay on HL-60(TB) leukemia, in the assay with OVCAR-8 ovarian and with BT-549 breast was greater than 100 µM each time. For the same compound, the total growth inhibition concentration (TGI) in the assay with MDA-MB-231 breast, in the assay on MOLT-4 leukemia and in the assay with PC-3 prostate was greater than 100 µM each time.

`CN(C)CCCN1C(=O)N(CCCN(C)C)c2c3cc(O)ccc3nc3c([N+](=O)[O-])ccc1c23`: the TGI (commonly the concentration at which net growth stops) came out at 39.6 µM in the assay with A549 NSCLC; 40.4 µM in the assay with MCF7 breast; 17.8 µM with OVCAR-4 ovarian; 35.5 µM in the assay with SF-539 CNS; 37.2 µM in the assay with OVCAR-8 ovarian; 33.7 µM in the assay on BT-549 breast. Besides, the TGI was 28.3 µM with MDA-MB-231 breast and 24 µM in the assay with PC-3 prostate.

As for `COc1cc(/C=C2\N=C(c3ccccc3)N(c3ccc(C(=O)c4ccccc4)cc3N3C(=O)/C(=C/c4cc(OC)c(OC)c(OC)c4)N=C3c3ccccc3)C2=O)cc(OC)c1OC`, the concentration for total growth inhibition (TGI) in the assay with A549 NSCLC is 71.6 µM; with MCF7 breast, 42.1 µM; in the assay on OVCAR-4 ovarian, greater than 100 µM; in the assay with HL-60(TB) leukemia, 15.5 µM; in the assay with OVCAR-8 ovarian, 73.2 µM; with BT-549 breast, 66.4 µM. Also, the results for the TGI with MDA-MB-231 breast, with MOLT-4 leukemia and in the assay with PC-3 prostate were 54 µM, 39.6 µM and 46 µM, respectively.

As for `COC(=O)C1CC(C=O)=C(SC)N1` (configuration not stated), the TGI in the assay with A549 NSCLC, in the assay with MCF7 breast, in the assay with OVCAR-4 ovarian, in the assay with OVCAR-8 ovarian, with BT-549 breast and in the assay on MDA-MB-231 breast was greater than 50 µM throughout. Further, the TGI in the assay on MOLT-4 leukemia and in the assay on PC-3 prostate was greater than 50 µM in each case.

For the compound `Cc1cc(=O)[nH]c(S(=O)(=O)NC(=S)Nc2ccc(Br)cc2)n1`, the TGI in the assay on OVCAR-4 ovarian, in the assay with SF-539 CNS, in the assay with HL-60(TB) leukemia, in the assay on OVCAR-8 ovarian, with BT-549 breast and in the assay with MDA-MB-231 breast was greater than 100 µM throughout. Moreover, the TGI in the assay with MOLT-4 leukemia and in the assay on PC-3 prostate was greater than 100 µM each time.

For the compound `CCCS(=O)OC1C(C2COC(C)(C)O2)OC2OC(C)(C)OC21` (configuration not stated), the TGI in the assay with A549 NSCLC was found to be 49.6 µM; in the assay on MCF7 breast, 27.3 µM; in the assay with OVCAR-4 ovarian, 34.7 µM; with SF-539 CNS, 38.4 µM; in the assay on OVCAR-8 ovarian, 29.3 µM; with BT-549 breast, 24.5 µM. Besides, the TGI with MDA-MB-231 breast amounted to 32.6 µM; in the assay with MOLT-4 leukemia, 6.57 µM; in the assay with PC-3 prostate, 24 µM.

For `CCCCN=C(OC1C=CCCC1)SC` (configuration not stated), the TGI in the assay on A549 NSCLC, in the assay with MCF7 breast, in the assay on OVCAR-4 ovarian, in the assay on HL-60(TB) leukemia, with OVCAR-8 ovarian and in the assay with BT-549 breast was greater than 100 µM each time. For the same compound, the TGI in the assay with MDA-MB-231 breast, in the assay on MOLT-4 leukemia and in the assay with PC-3 prostate was greater than 100 µM throughout.

Turning to `OCC1=C[C@@](COCc2ccccc2)(OCc2ccccc2)[C@@H](OCc2ccccc2)[C@@H]1OCc1ccccc1`, the TGI in the assay with A549 NSCLC was 67.3 µM; in the assay on MCF7 breast it was 23.8 µM; with OVCAR-4 ovarian it was 73.3 µM; with HL-60(TB) leukemia, 65.9 µM; in the assay on OVCAR-8 ovarian it was greater than 100 µM; in the assay with BT-549 breast it was 98.1 µM. Moreover, the TGI with MDA-MB-231 breast stood at 25.4 µM; in the assay on MOLT-4 leukemia it was 8.89 µM; with PC-3 prostate it was 55.5 µM.

`CC(C)(C)OC(=O)N[C@@H](Cc1ccccc1)C(=O)N1CC[C@@H](C(=O)N2[C@H]3CC4CC[C@@]3(CS2(=O)=O)C4(C)C)N1`: the TGI in the assay with A549 NSCLC, in the assay with OVCAR-4 ovarian, in the assay with HL-60(TB) leukemia, in the assay on OVCAR-8 ovarian, in the assay on BT-549 breast and in the assay on MDA-MB-231 breast was greater than 100 µM throughout. Also, the TGI in the assay with MOLT-4 leukemia and in the assay with PC-3 prostate was greater than 100 µM each time.

Regarding `CCn1c2ccccc2c2cc(NC(=O)c3c(C)[nH]c(=O)[nH]c3=S)ccc21`, the concentration for total growth inhibition (TGI) with MCF7 breast is greater than 100 µM; in the assay with OVCAR-4 ovarian, greater than 100 µM; in the assay with HL-60(TB) leukemia, greater than 100 µM; in the assay on OVCAR-8 ovarian it was greater than 100 µM; with BT-549 breast it was greater than 100 µM; in the assay on MDA-MB-231 breast it was 58.1 µM. For the same compound, the TGI in the assay with MOLT-4 leukemia and with PC-3 prostate was greater than 100 µM in each case.

For `C=CC(=O)N1C/C(=C\c2ccc(F)cc2)C(=O)/C(=C/c2ccc(F)cc2)C1`, the TGI is 4.47 µM in the assay on A549 NSCLC; 1.42 µM with MCF7 breast; 1.85 µM in the assay on OVCAR-4 ovarian; 0.653 µM with SF-539 CNS; greater than 100 µM in the assay on HL-60(TB) leukemia; 2.59 µM in the assay on OVCAR-8 ovarian. For the same compound, the concentration for total growth inhibition (TGI) with BT-549 breast was 1.2 µM; in the assay with PC-3 prostate, 1.79 µM.

On to `O=c1oc2ccccc2cc1-c1nc2ccccc2s1`, for which the TGI in the assay on A549 NSCLC is 16.8 µM; with MCF7 breast, 6.53 µM; in the assay with OVCAR-4 ovarian, 29 µM; in the assay with HL-60(TB) leukemia, greater than 100 µM; with OVCAR-8 ovarian it was 20.4 µM; in the assay with BT-549 breast, 46.4 µM. For the same compound, the values for the TGI in the assay with MDA-MB-231 breast and in the assay with PC-3 prostate were 27.6 µM and greater than 84.3 µM, respectively.

Consider `COc1cccc(C2c3cc4c(cc3OC(N3CCOCC3)C2C)OCO4)c1` (configuration not stated), for which the TGI was 51.9 µM in the assay with A549 NSCLC; 46.4 µM in the assay on MCF7 breast; 61 µM in the assay with OVCAR-4 ovarian; greater than 100 µM in the assay on OVCAR-8 ovarian; 22.4 µM with BT-549 breast; greater than 100 µM in the assay on MDA-MB-231 breast. Also, the TGI in the assay on MOLT-4 leukemia came out at 17.6 µM; with PC-3 prostate, 44.4 µM.

Values taken from PubChem BioAssay (NCI).
